Patent publication US20040034102A1, “Oral pediatric trimethobenzamide formulations and methods” (King Pharmaceuticals, Inc., priority 2002, published 2004)
Read-outs that look alike come from different tables or passages of the source.

Tests used:
[1] = Safety assessment in the crossover study (adverse events, laboratory tests); format: in vivo, human; on DIARRHEA (treatment emergent AE): test concentration or dose not given here; on ERYTHEMA, PALMAR (treatment emergent AE): test concentration or dose not given here
Text: Seventy-four healthy, non-smoking, male & female subjects, 18-65 years old were enrolled in this study. A total of 68 subjects completed all the requirements of the protocol. There were no enrollment violations. However, nine of the 74 subjects began the study during the third period of the initial group of subjects. All 74 subjects who received at least one dose of study medication were included in the safety analysis.
This study was a single center, randomized, open-label, 4-way crossover study in healthy subjects. Dosing was administered in the fasted state. Seventy-four (74) subjects were randomized into the study. All seventy-four subjects received one or more doses of study medication and are therefore included in the safety assessment. On Treatment Day 1 of the first treatment period, each subject was randomized to receive one of four possible study treatment sequences. The treatment groups consisted of the four treatments administered sequentially as DCAB, ADBC, BACD or CBDA. These treatments are shown below.
A signed informed consent was obtained from each subject. For screening purposes, the following procedures were required of each subject and were performed by the clinical site within 30 days prior to the study: a complete physical examination including a medical history, vital signs, clinical laboratory safety tests on blood and urine, medications taken prior to and during the study, and a serum pregnancy test for female subjects.
During the treatments, temperature, blood pressure, heart rate and respiratory rate were monitored as a safety measure. A physical examination and clinical laboratory tests were repeated at the completion of the study. Subjects were observed and questioned throughout the study for the occurrence of any adverse events.

[2] = cited from earlier work
[3] = FDA notice; cited from earlier work
[4] = 74 subjects, all 4 treatment periods

N-[2-(dimethylamino)-ethoxy]-3,4,5trimethoxybenzamide hydrochloride [trimethobenzamide hydrochloride]
subjects with decreased red blood cell count at the end of treatment ([1]; 5 percent prior to treatment): 11% | subjects with low hematocrit at the end of treatment ([1]; 8 percent prior to treatment): 34% | adverse events (AEs) experienced, total [1, 4]: 28 | treatment emergent AEs [1, 4]: 27 | AEs assessed as related to study treatment ([1]; all mild to moderate): 21 | hematocrit mean change ([1]; end of treatment vs prior): 2.3% | hemoglobin mean change ([1]; end of treatment vs prior): 0.6 g/dL | red blood cell count mean change ([1]; end of treatment vs prior): 2e+11 L⁻¹ | overall safety and tolerability ([1]; in vivo): safe and well tolerated | serious AEs ([1]; in vivo): no serious AEs | subjects with normal hemoglobin prior to treatment who had low hemoglobin at the end of treatment ([1]; no clinical significance): 13% | dizziness ([1]; number of events): 3 | neurologic complaints ([1]; number of events): 15 | paresthesias ([1]; number of events): 3 | headaches ([1]; number of events, in a total of 7 subjects): 8 | subjects prematurely withdrawn due to adverse events ([1]; of 6 withdrawn): 4 | samples with hyperkalemia ([1]; of the 72 samples drawn at the end of the study, due to hemolyzed specimens): 55 | ABDOMINAL PAIN (treatment emergent AE) ([1]; sequence A D B C (N = 20)): 5.0% | CONJUNCTIVITIS (treatment emergent AE) ([1]; sequence A D B C (N = 20)): 5.0% | DIARRHEA (treatment emergent AE) ([1]; sequence A D B C (N = 20)): 0.0% | DIZZINESS (treatment emergent AE) ([1]; sequence A D B C (N = 20)): 15.0% | EDEMA, PALMAR (treatment emergent AE) ([1]; sequence A D B C (N = 20)): 5.0% | ERYTHEMA, EXTERNAL NOSE (treatment emergent AE) ([1]; sequence A D B C (N = 20)): 0.0% | ERYTHEMA, PALMAR (treatment emergent AE) ([1]; sequence A D B C (N = 20)): 5.0% | HEADACHE (treatment emergent AE) ([1]; sequence A D B C (N = 20)): 5.0% | HYPOTONIA (treatment emergent AE) ([1]; sequence A D B C (N = 20)): 0.0% | INJECTION SITE REACTION (treatment emergent AE) ([1]; sequence A D B C (N = 20)): 0.0% | LEG CRAMPS (treatment emergent AE) ([1]; sequence A D B C (N = 20)): 0.0% | NAUSEA (treatment emergent AE) ([1]; sequence A D B C (N = 20)): 5.0% | NAUSEA AND VOMITING (treatment emergent AE) ([1]; sequence A D B C (N = 20)): 5.0% | Number of Subject With At Least one AE ([1]; sequence A D B C (N = 20)): 25.0% | Number of Subject With No AE ([1]; sequence A D B C (N = 20)): 75.0% | PARESTHESIA (treatment emergent AE) ([1]; sequence A D B C (N = 20)): 0.0% | PHARYNGITIS (treatment emergent AE) ([1]; sequence A D B C (N = 20)): 0.0% | RASH (treatment emergent AE) ([1]; sequence A D B C (N = 20)): 0.0% | […] (treatment emergent AE) ([1]; sequence A D B C (N = 20)): 0.0% | ABDOMINAL PAIN (treatment emergent AE) ([1]; sequence B A C D (N = 18)): 0.0% | CONJUNCTIVITIS (treatment emergent AE) ([1]; sequence B A C D (N = 18)): 0.0% | DIARRHEA (treatment emergent AE) ([1]; sequence B A C D (N = 18)): 0.0% | DIZZINESS (treatment emergent AE) ([1]; sequence B A C D (N = 18)): 0.0% | EDEMA, PALMAR (treatment emergent AE) ([1]; sequence B A C D (N = 18)): 0.0% | ERYTHEMA, EXTERNAL NOSE (treatment emergent AE) ([1]; sequence B A C D (N = 18)): 0.0% | ERYTHEMA, PALMAR (treatment emergent AE) ([1]; sequence B A C D (N = 18)): 0.0% | HEADACHE (treatment emergent AE) ([1]; sequence B A C D (N = 18)): 0.0% | HYPOTONIA (treatment emergent AE) ([1]; sequence B A C D (N = 18)): 0.0% | INJECTION SITE REACTION (treatment emergent AE) ([1]; sequence B A C D (N = 18)): 5.6% | LEG CRAMPS (treatment emergent AE) ([1]; sequence B A C D (N = 18)): 0.0% | NAUSEA (treatment emergent AE) ([1]; sequence B A C D (N = 18)): 0.0% | NAUSEA AND VOMITING (treatment emergent AE) ([1]; sequence B A C D (N = 18)): 0.0% | Number of Subject With At Least one AE ([1]; sequence B A C D (N = 18)): 22.2% | Number of Subject With No AE ([1]; sequence B A C D (N = 18)): 77.8% | PARESTHESIA (treatment emergent AE) ([1]; sequence B A C D (N = 18)): 11.1% | PHARYNGITIS (treatment emergent AE) ([1]; sequence B A C D (N = 18)): 0.0% | RASH (treatment emergent AE) ([1]; sequence B A C D (N = 18)): 5.6% | […] (treatment emergent AE) ([1]; sequence B A C D (N = 18)): 5.6% | ABDOMINAL PAIN (treatment emergent AE) ([1]; sequence C B D A (N = 18)): 0.0% | CONJUNCTIVITIS (treatment emergent AE) ([1]; sequence C B D A (N = 18)): 0.0% | DIARRHEA (treatment emergent AE) ([1]; sequence C B D A (N = 18)): 5.6% | DIZZINESS (treatment emergent AE) ([1]; sequence C B D A (N = 18)): 0.0% | EDEMA, PALMAR (treatment emergent AE) ([1]; sequence C B D A (N = 18)): 0.0% | ERYTHEMA, EXTERNAL NOSE (treatment emergent AE) ([1]; sequence C B D A (N = 18)): 5.6% | ERYTHEMA, PALMAR (treatment emergent AE) ([1]; sequence C B D A (N = 18)): 0.0% | HEADACHE (treatment emergent AE) ([1]; sequence C B D A (N = 18)): 16.7% | HYPOTONIA (treatment emergent AE) ([1]; sequence C B D A (N = 18)): 5.6% | INJECTION SITE REACTION (treatment emergent AE) ([1]; sequence C B D A (N = 18)): 0.0% | LEG CRAMPS (treatment emergent AE) ([1]; sequence C B D A (N = 18)): 0.0% | NAUSEA (treatment emergent AE) ([1]; sequence C B D A (N = 18)): 0.0% | NAUSEA AND VOMITING (treatment emergent AE) ([1]; sequence C B D A (N = 18)): 0.0% | Number of Subject With At Least one AE ([1]; sequence C B D A (N = 18)): 22.2% | Number of Subject With No AE ([1]; sequence C B D A (N = 18)): 77.8% | PARESTHESIA (treatment emergent AE) ([1]; sequence C B D A (N = 18)): 0.0% | PHARYNGITIS (treatment emergent AE) ([1]; sequence C B D A (N = 18)): 0.0% | RASH (treatment emergent AE) ([1]; sequence C B D A (N = 18)): 0.0% | […] (treatment emergent AE) ([1]; sequence C B D A (N = 18)): 0.0% | ABDOMINAL PAIN (treatment emergent AE) ([1]; sequence D C A B (N = 18)): 0.0% | CONJUNCTIVITIS (treatment emergent AE) ([1]; sequence D C A B (N = 18)): 0.0% | DIARRHEA (treatment emergent AE) ([1]; sequence D C A B (N = 18)): 0.0% | DIZZINESS (treatment emergent AE) ([1]; sequence D C A B (N = 18)): 0.0% | EDEMA, PALMAR (treatment emergent AE) ([1]; sequence D C A B (N = 18)): 0.0% | ERYTHEMA, EXTERNAL NOSE (treatment emergent AE) ([1]; sequence D C A B (N = 18)): 0.0% | ERYTHEMA, PALMAR (treatment emergent AE) ([1]; sequence D C A B (N = 18)): 0.0% | HEADACHE (treatment emergent AE) ([1]; sequence D C A B (N = 18)): 16.7% | HYPOTONIA (treatment emergent AE) ([1]; sequence D C A B (N = 18)): 0.0% | INJECTION SITE REACTION (treatment emergent AE) ([1]; sequence D C A B (N = 18)): 0.0% | LEG CRAMPS (treatment emergent AE) ([1]; sequence D C A B (N = 18)): 5.6% | NAUSEA (treatment emergent AE) ([1]; sequence D C A B (N = 18)): 0.0% | NAUSEA AND VOMITING (treatment emergent AE) ([1]; sequence D C A B (N = 18)): 0.0% | Number of Subject With At Least one AE ([1]; sequence D C A B (N = 18)): 27.8% | Number of Subject With No AE ([1]; sequence D C A B (N = 18)): 72.2% | PARESTHESIA (treatment emergent AE) ([1]; sequence D C A B (N = 18)): 5.6% | PHARYNGITIS (treatment emergent AE) ([1]; sequence D C A B (N = 18)): 0.0% | RASH (treatment emergent AE) ([1]; sequence D C A B (N = 18)): 0.0% | […] (treatment emergent AE) ([1]; sequence D C A B (N = 18)): 0.0% | severe AEs ([1]; severe pharyngitis, judged unrelated to study treatment): 1 | DURATION ([2]; IM): 2 to 3 h | ONSET ([2]; IM): 15 to 35 min | DURATION ([2]; PO): 3 to 4 h | ONSET ([2]; PO): 10 to 40 min | DURATION ([2]; Rect): 3 to 4 h | ONSET ([2]; Rect): 10 to 40 min | plasma levels of an oral dose of 400 milligrams vs a 200-milligram intramuscular dose [3]: APP[…] | systemic bioavailability of orally administered drug, of the bioavailability of intramuscularly administered drug [3]: about 60%
